From BindingDB's records for patent US11691963 (Ajax Therapeutics, 2023)

These molecules were tested against Tyrosine-protein kinase JAK2 [Y1007F,Y1008F] (Homo sapiens, UniProt O60674, Y1007F/Y1008F) (assay: JAK2 Binding Assay).
Experimental: Streptavidin-coated magnetic beads were treated with biotinylated small molecule ligands for 30 minutes at room temperature to generate affinity resins for kinase assays. The liganded beads were blocked with excess biotin and washed with blocking buffer (SeaBlock (Pierce), 1% BSA, 0.05% Tween 20, 1 mmol/L DTT) to remove unbound ligand and to reduce nonspecific phage binding. Binding reactions were assembled by combining kinases, liganded affinity beads, and test compounds in 1× binding buffer (1×PBS, 0.05% Tween 20, 0.1% BSA, 1 mmol/L DTT). Test compound was prepared as 111× stocks in 100% DMSO and directly diluted into the assay wells. All reactions were performed in polypropylene 384-well plates in a final volume of 0.02 mL. The assay plates were incubated at room temperature with shaking for 1 hour and the affinity beads were washed with wash buffer (1×PBS, 0.05% Tween 20). The beads were then re-suspended in elution buffer (1×PBS, 0.05% Tween 20, 0.5 μmol/L non-biotinylated affinity ligand) and incubated at room temperature with shaking for 30 minutes. The kinase concentration in the eluate was measured by qPCR.

Sequence of Tyrosine-protein kinase JAK2 [Y1007F,Y1008F] (O60674 whole entry Y1007F/Y1008F): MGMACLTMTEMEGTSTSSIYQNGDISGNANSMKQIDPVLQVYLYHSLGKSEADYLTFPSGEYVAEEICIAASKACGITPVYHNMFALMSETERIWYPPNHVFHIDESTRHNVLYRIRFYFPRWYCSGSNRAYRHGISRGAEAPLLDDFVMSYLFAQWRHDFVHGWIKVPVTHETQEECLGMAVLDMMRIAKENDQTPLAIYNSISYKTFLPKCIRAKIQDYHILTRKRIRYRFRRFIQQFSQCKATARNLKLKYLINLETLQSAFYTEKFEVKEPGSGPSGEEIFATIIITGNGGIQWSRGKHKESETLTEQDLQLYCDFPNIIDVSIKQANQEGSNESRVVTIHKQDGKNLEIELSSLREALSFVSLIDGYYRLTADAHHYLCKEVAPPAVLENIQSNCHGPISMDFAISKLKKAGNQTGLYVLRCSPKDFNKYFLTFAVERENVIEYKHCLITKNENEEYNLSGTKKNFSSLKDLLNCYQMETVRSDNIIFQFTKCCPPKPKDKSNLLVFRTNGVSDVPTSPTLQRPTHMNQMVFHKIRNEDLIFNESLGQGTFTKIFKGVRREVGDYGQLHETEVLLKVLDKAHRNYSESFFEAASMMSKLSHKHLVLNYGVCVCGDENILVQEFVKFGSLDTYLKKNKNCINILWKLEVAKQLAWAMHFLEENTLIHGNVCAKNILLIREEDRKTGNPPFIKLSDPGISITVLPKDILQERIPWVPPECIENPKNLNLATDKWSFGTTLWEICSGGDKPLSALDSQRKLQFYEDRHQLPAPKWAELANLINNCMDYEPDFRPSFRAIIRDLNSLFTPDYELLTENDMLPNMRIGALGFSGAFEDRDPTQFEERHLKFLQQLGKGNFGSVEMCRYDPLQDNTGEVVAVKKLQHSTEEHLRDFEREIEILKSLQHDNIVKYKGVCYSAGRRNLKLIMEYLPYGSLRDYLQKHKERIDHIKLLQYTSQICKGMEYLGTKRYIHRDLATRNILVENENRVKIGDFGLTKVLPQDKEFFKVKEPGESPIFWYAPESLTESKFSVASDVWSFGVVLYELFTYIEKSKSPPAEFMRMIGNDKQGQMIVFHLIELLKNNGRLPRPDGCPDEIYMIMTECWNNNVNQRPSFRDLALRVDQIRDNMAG

Kd, < 10 nM:
CC(=O)Nc1cc(Oc2ccc3nc(Nc4cc(C(C)(C)C)n(C[C@H]5C[C@@H](O)C5)n4)n(C)c3c2)ccn1 [US11691963, Example I-28]
CC(=O)Nc1cc(Oc2ccc3nc(Nc4cc5n(n4)CCCC5(C)C)n(C)c3n2)ccn1 [US11691963, Example I-42]
CC(=O)Nc1cc(Oc2cnc3nc(Nc4cc(C(C)(C)C)n([C@H]5C[C@H](O)C5)n4)n(C)c3c2)ccn1 [US11691963, Example I-115]
CC(=O)Nc1cc(Oc2cnc3nc(Nc4cc(C(C)(C)C)n([C@H]5C[C@@H](O)C5)n4)n(C)c3c2)ccn1 [US11691963, Example I-116]
